From the NIST ThermoML archive (doi:10.1016/j.jct.2017.03.006)
Numbers after ± are expanded uncertainties.

Assay: xn = mol fraction of the nth substance listed
Details: Liquid; for mass density: 313.15 K, Vibrating tube method; for viscosity: 323.15 K, 100 kPa, Concentric cylinders viscometry

## Cc1ccc(C)c(C)c1 [1,2,4-trimethylbenzene] + CCC(C)O
50000 kPa, x2 = 0.5997
  mass density: 855 ± 0.8 kg/m3
50000 kPa, x2 = 0.6999
  mass density: 848.2 ± 0.8 kg/m3
50000 kPa, x2 = 0.7999
  mass density: 841.1 ± 0.8 kg/m3
50000 kPa, x2 = 0.9
  mass density: 833.3 ± 0.8 kg/m3
60000 kPa, x2 = 0
  mass density: 895 ± 0.8 kg/m3
60000 kPa, x2 = 0.1
  mass density: 890.1 ± 0.8 kg/m3
60000 kPa, x2 = 0.1989
  mass density: 884.6 ± 0.8 kg/m3
60000 kPa, x2 = 0.3011
  mass density: 878.8 ± 0.8 kg/m3
60000 kPa, x2 = 0.4002
  mass density: 873.1 ± 0.8 kg/m3
60000 kPa, x2 = 0.5001
  mass density: 867.1 ± 0.8 kg/m3
60000 kPa, x2 = 0.5997
  mass density: 860.6 ± 0.8 kg/m3
60000 kPa, x2 = 0.6999
  mass density: 853.8 ± 0.8 kg/m3
60000 kPa, x2 = 0.7999
  mass density: 846.7 ± 0.8 kg/m3
60000 kPa, x2 = 0.9
  mass density: 839 ± 0.8 kg/m3
70000 kPa, x2 = 0
  mass density: 899.9 ± 0.8 kg/m3
70000 kPa, x2 = 0.1
  mass density: 895.3 ± 0.8 kg/m3
70000 kPa, x2 = 0.1989
  mass density: 889.7 ± 0.8 kg/m3
70000 kPa, x2 = 0.3011
  mass density: 884.1 ± 0.8 kg/m3
70000 kPa, x2 = 0.4002
  mass density: 878.3 ± 0.8 kg/m3
70000 kPa, x2 = 0.5001
  mass density: 872.4 ± 0.8 kg/m3
70000 kPa, x2 = 0.5997
  mass density: 865.9 ± 0.8 kg/m3
70000 kPa, x2 = 0.6999
  mass density: 859.1 ± 0.8 kg/m3
70000 kPa, x2 = 0.7999
  mass density: 852.1 ± 0.8 kg/m3
70000 kPa, x2 = 0.9
  mass density: 844.4 ± 0.9 kg/m3
80000 kPa, x2 = 0
  mass density: 904.6 ± 0.8 kg/m3
80000 kPa, x2 = 0.1
  mass density: 900.1 ± 0.8 kg/m3
80000 kPa, x2 = 0.1989
  mass density: 894.7 ± 0.8 kg/m3
80000 kPa, x2 = 0.3011
  mass density: 889 ± 0.8 kg/m3
80000 kPa, x2 = 0.4002
  mass density: 883.3 ± 0.8 kg/m3
80000 kPa, x2 = 0.5001
  mass density: 877.5 ± 0.8 kg/m3
80000 kPa, x2 = 0.5997
  mass density: 871 ± 0.8 kg/m3
80000 kPa, x2 = 0.6999
  mass density: 864.2 ± 0.8 kg/m3
80000 kPa, x2 = 0.7999
  mass density: 857.2 ± 0.9 kg/m3
80000 kPa, x2 = 0.9
  mass density: 849.5 ± 0.9 kg/m3
90000 kPa, x2 = 0
  mass density: 909 ± 0.8 kg/m3
90000 kPa, x2 = 0.1
  mass density: 904.7 ± 0.8 kg/m3
90000 kPa, x2 = 0.1989
  mass density: 899.4 ± 0.8 kg/m3
90000 kPa, x2 = 0.3011
  mass density: 893.6 ± 0.8 kg/m3
90000 kPa, x2 = 0.4002
  mass density: 888.1 ± 0.8 kg/m3
90000 kPa, x2 = 0.5001
  mass density: 882.2 ± 0.8 kg/m3
90000 kPa, x2 = 0.5997
  mass density: 875.7 ± 0.9 kg/m3
90000 kPa, x2 = 0.6999
  mass density: 869 ± 0.9 kg/m3
90000 kPa, x2 = 0.7999
  mass density: 861.9 ± 0.9 kg/m3
90000 kPa, x2 = 0.9
  mass density: 854.3 ± 0.9 kg/m3
100000 kPa, x2 = 0
  mass density: 913.3 ± 0.8 kg/m3
100000 kPa, x2 = 0.1
  mass density: 909.2 ± 0.8 kg/m3
100000 kPa, x2 = 0.1989
  mass density: 903.8 ± 0.8 kg/m3
100000 kPa, x2 = 0.3011
  mass density: 898.1 ± 0.8 kg/m3
100000 kPa, x2 = 0.4002
  mass density: 892.5 ± 0.8 kg/m3
100000 kPa, x2 = 0.5001
  mass density: 886.8 ± 0.9 kg/m3
100000 kPa, x2 = 0.5997
  mass density: 880.3 ± 0.9 kg/m3
100000 kPa, x2 = 0.6999
  mass density: 873.6 ± 0.9 kg/m3
100000 kPa, x2 = 0.7999
  mass density: 866.6 ± 0.9 kg/m3
100000 kPa, x2 = 0.9
  mass density: 859 ± 0.9 kg/m3
110000 kPa, x2 = 0
  mass density: 917.4 ± 0.8 kg/m3
110000 kPa, x2 = 0.1
  mass density: 913.5 ± 0.8 kg/m3
110000 kPa, x2 = 0.1989
  mass density: 908.1 ± 0.8 kg/m3
110000 kPa, x2 = 0.3011
  mass density: 902.5 ± 0.8 kg/m3
110000 kPa, x2 = 0.4002
  mass density: 897 ± 0.9 kg/m3
110000 kPa, x2 = 0.5001
  mass density: 891.3 ± 0.9 kg/m3
110000 kPa, x2 = 0.5997
  mass density: 884.8 ± 0.9 kg/m3
110000 kPa, x2 = 0.6999
  mass density: 878.1 ± 0.9 kg/m3
110000 kPa, x2 = 0.7999
  mass density: 871.1 ± 0.9 kg/m3
110000 kPa, x2 = 0.9
  mass density: 863.5 ± 0.9 kg/m3
120000 kPa, x2 = 0
  mass density: 921.4 ± 0.8 kg/m3
120000 kPa, x2 = 0.1
  mass density: 917.6 ± 0.8 kg/m3
120000 kPa, x2 = 0.1989
  mass density: 912.3 ± 0.8 kg/m3
120000 kPa, x2 = 0.3011
  mass density: 906.7 ± 0.8 kg/m3
120000 kPa, x2 = 0.4002
  mass density: 901.1 ± 0.9 kg/m3
120000 kPa, x2 = 0.5001
  mass density: 895.5 ± 0.9 kg/m3
120000 kPa, x2 = 0.5997
  mass density: 889.1 ± 0.9 kg/m3
120000 kPa, x2 = 0.6999
  mass density: 882.4 ± 0.9 kg/m3
120000 kPa, x2 = 0.7999
  mass density: 875.3 ± 0.9 kg/m3
120000 kPa, x2 = 0.9
  mass density: 867.7 ± 1 kg/m3
130000 kPa, x2 = 0
  mass density: 925.2 ± 0.8 kg/m3
130000 kPa, x2 = 0.1
  mass density: 921.5 ± 0.8 kg/m3
130000 kPa, x2 = 0.1989
  mass density: 916.3 ± 0.8 kg/m3
130000 kPa, x2 = 0.3011
  mass density: 910.7 ± 0.9 kg/m3
130000 kPa, x2 = 0.4002
  mass density: 905.2 ± 0.9 kg/m3
130000 kPa, x2 = 0.5001
  mass density: 899.6 ± 0.9 kg/m3
130000 kPa, x2 = 0.5997
  mass density: 893.2 ± 0.9 kg/m3
130000 kPa, x2 = 0.6999
  mass density: 886.6 ± 0.9 kg/m3
130000 kPa, x2 = 0.7999
  mass density: 879.5 ± 0.9 kg/m3
130000 kPa, x2 = 0.9
  mass density: 871.9 ± 1 kg/m3
140000 kPa, x2 = 0
  mass density: 928.9 ± 0.8 kg/m3
140000 kPa, x2 = 0.1
  mass density: 925.4 ± 0.8 kg/m3
140000 kPa, x2 = 0.1989
  mass density: 920.2 ± 0.8 kg/m3
140000 kPa, x2 = 0.3011
  mass density: 914.4 ± 0.9 kg/m3
140000 kPa, x2 = 0.4002
  mass density: 908.9 ± 0.9 kg/m3
140000 kPa, x2 = 0.5001
  mass density: 903.7 ± 0.9 kg/m3
140000 kPa, x2 = 0.5997
  mass density: 897.3 ± 0.9 kg/m3
140000 kPa, x2 = 0.6999
  mass density: 890.2 ± 0.9 kg/m3
140000 kPa, x2 = 0.7999
  mass density: 883.2 ± 1 kg/m3
140000 kPa, x2 = 0.9
  mass density: 875.6 ± 1 kg/m3
x2 = 0
  viscosity: 0.62 ± 0.014 mPa·s
x2 = 0.1001
  viscosity: 0.62 ± 0.014 mPa·s
x2 = 0.2261
  viscosity: 0.614 ± 0.013 mPa·s
x2 = 0.3
  viscosity: 0.616 ± 0.013 mPa·s
x2 = 0.3966
  viscosity: 0.646 ± 0.014 mPa·s
x2 = 0.5298
  viscosity: 0.658 ± 0.014 mPa·s
x2 = 0.6001
  viscosity: 0.71 ± 0.015 mPa·s
